Test results reported in patent US20240240224A1, “FLUORESCENT D-TYPE AMINO ACID METABOLISM MARKER-BASED METHOD FOR DETECTING ANTIBACTERIAL DRUG SENSITIVITY TEST” (priority 2020, published 2024).
In brackets after ≈: the same amount, converted by molar mass.

Columns and labels:
E.coli 1113 [1] = test: FDAA metabolic labeling susceptibility test (Cy5-DAA probe, flow cytometry); format: cell-based, Escherichia coli; details: Escherichia coli, 1113, 2 h, read-out: MIC, FDAA
Experimental: (§1) The specific experimental steps are as follows: • 1. Take the colony to be tested that has been cultured overnight on the plate and fully mix it in normal saline to make a uniform bacterial solution. Dilute it into CAMHB medium to make a bacterial solution with OD600=0.05. • 2. Add 45 μl antibiotic solutions to be tested of different concentrations to 96-well plates (see Table 3 for antibiotic concentration gradient settings). • 3. Add 50 μl of bacterial solution prepared in Step 1 to the 96-well plate and mix well. • 4.5 μl of 10 mM Cy5-DAA probe was added to each well (final concentration was 0.15 mM, and its structure was shown in FIG. 1). After mixing, the probe was incubated for 2 hours in the dark. • 5. After dilution with 200 μl PBS solution, the fluorescence intensity of each sample was detected by flow cytometry. The flow detection results are shown in the attached FIG. 4-5, showing the curve of antibiotic concentration gradient and fluorescence intensity, and the MIC (minimum inhibitory concentration) is obtained by referring to this curve.

E.coli 1146 [2] = test: as above; format: cell-based, Escherichia coli; details: Escherichia coli, 1146, 2 h, read-out: MIC, FDAA
Experimental: as §1

E.coli 1113 [3] = test: Vitek 2 drug sensitivity test; format: cell-based, Escherichia coli; on Sensibility: key: S: Drug sensitive; R: Drug resistance
E.coli 1146 [4] = test: Vitek 2 drug sensitivity test; format: cell-based, Escherichia coli; on Sensibility: key: S: Drug sensitive; R: Drug resistance
E. coli Ec11 [5] = test: BMD susceptibility test; format: cell-based, Escherichia coli; details: unit assumed
E. coli Ec11 [6] = test: FaAST (FDAA metabolic labeling); format: cell-based, Escherichia coli; details: unit assumed
Experimental: as §1
(§2) Antibiotic resistant strains are shown in bold in the table below.

Ec ATCC 25922 [7] = test: FaAST (FDAA metabolic labeling); format: cell-based, Escherichia coli; details: unit assumed
Experimental: as §1, §2

E. coli Ec13 [8] = test: BMD susceptibility test; format: cell-based, Escherichia coli; details: unit assumed
E. coli Ec13 [9] = test: FaAST (FDAA metabolic labeling); format: cell-based, Escherichia coli; details: unit assumed
Experimental: as §1, with “cytometry.” for “cytometry. The flow detection results are shown in the attached FIG. 4-5, showing the curve of antibiotic concentration gradient and fluorescence intensity, and the MIC (minimum inhibitory concentration) is obtained by referring to this curve.”

Ec ATCC 25922 [10] = test: BMD susceptibility test; format: cell-based, Escherichia coli; details: unit assumed
A. baumannii Ab16 [11] = test: BMD susceptibility test; format: cell-based, Acinetobacter baumannii; details: unit assumed
A. baumannii Ab16 [12] = test: FaAST (FDAA metabolic labeling); format: cell-based, Acinetobacter baumannii; details: unit assumed
Experimental: as §1, with “cytometry.” for “cytometry. The flow detection results are shown in the attached FIG. 4-5, showing the curve of antibiotic concentration gradient and fluorescence intensity, and the MIC (minimum inhibitory concentration) is obtained by referring to this curve.”

A. baumannii Ab19 [13] = test: BMD susceptibility test; format: cell-based, Acinetobacter baumannii; details: unit assumed
A. baumannii Ab19 [14] = test: FaAST (FDAA metabolic labeling); format: cell-based, Acinetobacter baumannii; details: unit assumed
Experimental: as §1, §2

K. pneumoniae Kp6 [15] = test: BMD susceptibility test; format: cell-based, Klebsiella pneumoniae; details: unit assumed
K. pneumoniae Kp9 [16] = test: BMD susceptibility test; format: cell-based, Klebsiella pneumoniae; details: unit assumed
K. pneumoniae Kp6 [17] = test: FaAST (FDAA metabolic labeling); format: cell-based, Klebsiella pneumoniae; details: unit assumed
Experimental: as §1, with “cytometry.” for “cytometry. The flow detection results are shown in the attached FIG. 4-5, showing the curve of antibiotic concentration gradient and fluorescence intensity, and the MIC (minimum inhibitory concentration) is obtained by referring to this curve.”

K. pneumoniae Kp9 [18] = test: FaAST (FDAA metabolic labeling); format: cell-based, Klebsiella pneumoniae; details: unit assumed
Experimental: as §1, with “cytometry.” for “cytometry. The flow detection results are shown in the attached FIG. 4-5, showing the curve of antibiotic concentration gradient and fluorescence intensity, and the MIC (minimum inhibitory concentration) is obtained by referring to this curve.”

[19] = tested on: bacteria contained in alveolar lavage fluid; test: FDAA metabolic labeling susceptibility test of alveolar lavage fluid (Cy5-DAA probe); format: cell-based; details: alveolar lavage fluid of patients with hospital acquired pneumonia, 2 hours
Experimental: (§3) With reference to the flow chart of the rapid detection method of antimicrobial susceptibility test based on FDAA metabolic markers shown in FIG. 3, FDAA is used for the detection of antimicrobial susceptibility test of alveolar lavage fluid. The specific experimental steps are as follows: • 1. Mix bronchoalveolar lavage fluid (BALF, 10 ml) of patients with hospital acquired pneumonia with cation regulated broth medium (CAMHB, 10 ml) of twice the concentration to prepare the bacterial fluid to be tested. • 2. Add 45 μl antibiotic solutions of different concentrations to the 96-well plate separately (see Table 1 for antibiotic concentration gradient settings). • 3. Add 50 μl of the bacterial solution prepared in step 1 to the 96-well plate and mix well. • 4. Add 5 μl of 10 mM Cy5-DAA probe (final concentration 0.15 mM, see FIG. 1 for its structure) into each well, mix well, and then cultivate in dark for 2 hours. • 5. Add 200 μl PBS solution for dilution, and then use flow cytometry to detect the fluorescence intensity of each sample.

[20] = tested on: bacteria contained in alveolar lavage fluid; test: Vitek 2 drug sensitivity test of alveolar lavage fluid; format: cell-based; on Sensibility: key: S: Drug sensitive; R: Drug resistance
[21] = tested on: alveolar lavage fluid sample 0130, A. baumannii; test: BMD susceptibility test of patient alveolar lavage fluid; format: cell-based, Acinetobacter baumannii; details: unit assumed
Description: (§4) The results of antimicrobial susceptibility test of alveolar lavage fluid of seven patients using FDAA and BMD methods are shown in the following table. The drug-resistant bacteria are shown in bold.

[22] = tested on: alveolar lavage fluid sample 0206, A. baumannii; test: as above; format: cell-based, Acinetobacter baumannii; details: unit assumed
Description: as §4

[23] = tested on: alveolar lavage fluid sample 0219, A. baumannii; test: as above; format: cell-based, Acinetobacter baumannii; details: unit assumed
Description: as §4

[24] = tested on: alveolar lavage fluid sample 0130, A. baumannii; test: FaAST (FDAA) susceptibility test of patient alveolar lavage fluid; format: cell-based, Acinetobacter baumannii; details: unit assumed
Experimental: as §3, §4

[25] = tested on: alveolar lavage fluid sample 0204, A. baumannii; test: as above; format: cell-based, Acinetobacter baumannii; details: unit assumed
Experimental: as §3, §4

[26] = tested on: alveolar lavage fluid sample 0206, A. baumannii; test: as above; format: cell-based, Acinetobacter baumannii; details: unit assumed
Experimental: as §3, §4

[27] = tested on: alveolar lavage fluid sample 0219, A. baumannii; test: as above; format: cell-based, Acinetobacter baumannii; details: unit assumed
Experimental: as §3, §4

[28] = tested on: alveolar lavage fluid sample 0204, A. baumannii; test: BMD susceptibility test of patient alveolar lavage fluid; format: cell-based, Acinetobacter baumannii; details: unit assumed
[29] = tested on: alveolar lavage fluid sample 0203, K. pneumoniae; test: as above; format: cell-based, Klebsiella pneumoniae; details: unit assumed
Description: as §4

[30] = tested on: alveolar lavage fluid sample 0226, K. pneumoniae; test: as above; format: cell-based, Klebsiella pneumoniae; details: unit assumed
Description: as §4

[31] = tested on: alveolar lavage fluid sample 0203, K. pneumoniae; test: FaAST (FDAA) susceptibility test of patient alveolar lavage fluid; format: cell-based, Klebsiella pneumoniae; details: unit assumed
Experimental: as §3, §4

[32] = tested on: alveolar lavage fluid sample 0226, K. pneumoniae; test: as above; format: cell-based, Klebsiella pneumoniae; details: unit assumed
Experimental: as §3, §4

Ec ATCC 25922 [33] = details: cited from earlier work

For `CN(C)c1cc(NC(=O)CNC(C)(C)C)c(O)c2c1C[C@H]1C[C@H]3[C@H](N(C)C)C(O)=C(C(N)=O)C(=O)[C@@]3(O)C(O)=C1C2=O` [Tigecycline, tigecycline], the MIC (E.coli 1113 [1]) was 1 µg/mL (≈ 1.71 µM), the MIC (E.coli 1146 [2]) was 0.25 µg/mL (≈ 0.427 µM) and the MIC, Vitek 2 (E.coli 1113 [3]) was < 1 µg/mL. The Sensibility (E.coli 1113 [3]) was “S”, the Sensibility (E.coli 1146 [4]) was “S” and the MIC (E.coli 1146 [4]; Escherichia coli) was ≤ 0.25 µg/mL. For the same compound, the BMD (MIC) (E. coli Ec11 [5]) was ≤ 0.25 µg/mL, the FaAST (MIC) (E. coli Ec11 [6]) was ≤ 0.25 µg/mL and the FaAST (MIC) (Ec ATCC 25922 [7]) was ≤ 0.25 µg/mL. For the same compound, the BMD (MIC) (E. coli Ec13 [8]) was ≤ 0.25 µg/mL, the FaAST (MIC) (E. coli Ec13 [9]) was ≤ 0.25 µg/mL and the BMD (MIC) (Ec ATCC 25922 [10]) was ≤ 0.25 µg/mL. For the same compound, the BMD (MIC) (A. baumannii Ab16 [11]) was ≤ 0.25 µg/mL, the FaAST (MIC) (A. baumannii Ab16 [12]) was ≤ 0.25 µg/mL and the BMD (MIC) (A. baumannii Ab19 [13]) was ≤ 0.25 µg/mL. The FaAST (MIC) (A. baumannii Ab19 [14]) was 0.5 µg/mL, the BMD (MIC) (K. pneumoniae Kp6 [15]) was ≤ 0.25 µg/mL and the BMD (MIC) (K. pneumoniae Kp9 [16]) was 0.5 µg/mL. The FaAST (MIC) (K. pneumoniae Kp6 [17]) was ≤ 0.25 µg/mL, the FaAST (MIC) (K. pneumoniae Kp9 [18]) was 0.25 µg/mL and the “MIC, FDAA” value [19] was 4 µg/mL (≈ 6.83 µM). The MIC [20] was 2 µg/mL (≈ 3.41 µM), the Sensibility [20] was “S” and the BMD (MIC) [21] was 2 µg/mL. For the same compound, the BMD (MIC) [22] was 1 µg/mL, the BMD (MIC) [23] was 1 µg/mL and the FaAST (MIC) [24] was 2 µg/mL. For the same compound, the FaAST (MIC) [25] was 0.5 µg/mL, the FaAST (MIC) [26] was 8 µg/mL and the FaAST (MIC) [27] was 64 µg/mL. The BMD (MIC) [28] was 0.5 µg/mL, the BMD (MIC) [29] was 1 µg/mL and the BMD (MIC) [30] was 1 µg/mL. The FaAST (MIC) [31] was 0.125 µg/mL, the FaAST (MIC) [32] was 0.5 µg/mL and the “CLSI QC range” value (Ec ATCC 25922 [33]) was 0.03-0.25.

Compound Polymyxin B has a BMD (MIC) (E. coli Ec11 [5]) of 2 µg/mL, a FaAST (MIC) (E. coli Ec11 [6]) of 2 µg/mL and a FaAST (MIC) (Ec ATCC 25922 [7]) of 2 µg/mL. For the same compound, the BMD (MIC) (E. coli Ec13 [8]) was 8 µg/mL, the FaAST (MIC) (E. coli Ec13 [9]) was 8 µg/mL and the BMD (MIC) (Ec ATCC 25922 [10]) was 2 µg/mL. The BMD (MIC) (K. pneumoniae Kp6 [15]) was 0.5 µg/mL, the BMD (MIC) (K. pneumoniae Kp9 [16]) was 16 µg/mL and the FaAST (MIC) (K. pneumoniae Kp6 [17]) was 1 µg/mL. For the same compound, the FaAST (MIC) (K. pneumoniae Kp9 [18]) was 32 µg/mL and the “CLSI QC range” value (Ec ATCC 25922 [33]) was 0.25-2.
